According to patent US20230295133A1, “PROCESS FOR PREPARING A COMPOUND USEFUL TO TREAT MYCOSES” (PULMOCIDE LIMITED, priority 2014, published 2023):
Converted amounts (≈) assume the structure as drawn.

How the values were obtained:
[1] = test system: Chaectomium globosum ATCC44699; assay: Fungus panel screening, CLSI broth microdilution; type: cell-based
Protocol: Fungus panel screening was conducted by Eurofins Panlabs Inc. The MIC and MIC50 values of the test articles were determined following the guidelines of the Clinical and Laboratory Standards Institute, broth microdilution methods for yeast (CLSI M27-A2), (CLSI, 2002) and for filamentous fungi (CLSI M38-A), (CLSI, 2008).

[2] = test system: aspergillus fumigatus (ATCC 13073 [strain: NIH 5233]); assay: In vivo anti-fungal activity, prophylactic and therapeutic treatment of infected immunocompromised neutropenic mice; parameters: species or system A/J mice; details: prophylactic treatment (days 0, 1, 2 and 3); 0.4 mg/mL
[3] = test system: aspergillus fumigatus (ATCC 13073 [strain: NIH 5233]); assay: Survival of severely immunosuppressed neutropenic infected mice, monotherapy and combination; type: in vivo, A/J mice; details: Example 1 0.4 mg/mL (in); Posaconazole 1 mg/kg (po); once daily days 1-6
Protocol: On day 0, animals were infected intranasally with 35 µL of the spore suspension (1.67 × 10^8 spores/mL in physiological saline) of aspergillus fumigatus (ATCC 13073 [strain: NIH 5233]). Compound Example (I), prepared as a suspension in isotonic saline (0.4 mg/mL), was dosed once daily by an intra-nasal injection (35 µL/mouse) on days 1-6 after infection. Posaconazole (1 mg/kg) was given orally once daily on days 1-6 after infection. Body weight and survival were monitored daily up to day 7.

[4] = test system: Aspergillus fumigatus NCPF2010; assay: Broth microdilution assay (modified EUCAST); type: cell-based; details: Aspergillus fumigatus, NCPF2010; broth microdilution assay, n = 3; read-out: MIC75 against Aspergillus fumigatus isolate NCPF2010
In short: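 Spores from 3-day Sabouraud cultures (working suspension 2 × 10^5 spores/mL) were added to an equal volume of RPMI-1640 (2 mM L-glutamine, 0.5% BSA, 2% glucose, 0.165 M MOPS, pH 7) containing compound, in quadruplicate. After 48 hr at 35 °C, OD530 gave percent inhibition. MIC50, MIC75 and MIC90 came from concentration-response curves.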

SMILES: CC[C@@H]([C@H](C)O)n1ncn(-c2ccc(N3CCN(c4ccc(OC[C@@H]5CO[C@@](Cn6cncn6)(c6ccc(F)cc6F)C5)cc4)CC3)cc2)c1=O [Posaconazole, reference compound]
- MIC50 ([1]; 50% inhibition by visual inspection (CLSI)): 0.13 µg/mL (≈ 0.186 µM)
- MIC ([1]; 100% inhibition by visual inspection (CLSI), read-out: MIC100): 0.25 µg/mL (≈ 0.357 µM)
- % Inhibition versus Infected Controls, GM in BALF [2]: 20%
- % Inhibition versus Infected Controls, GM in serum [2]: 34%
- % Inhibition versus Infected Controls, Lung Fungal Load [2]: 44%
- Median survival [3]: 6.5 days
- No. of survivors on day 7 [3]: 0/6
- Survivors on day 7 (%) [3]: 0%
- MIC [4]: 0.0153 µM (≈ 0.0107 µg/mL)
